From US11739070B2, “C5A receptor modulators” (IDORSIA PHARMACEUTICALS LTD, priority 2018, dated 2023)
pIC50: −log10 of the molar value.

Biological target: T1, C5AR1 (Homo sapiens, UniProt P21730)
T1 construct: host or cells: CHO-K1
T1 sequence (P21730 1-350): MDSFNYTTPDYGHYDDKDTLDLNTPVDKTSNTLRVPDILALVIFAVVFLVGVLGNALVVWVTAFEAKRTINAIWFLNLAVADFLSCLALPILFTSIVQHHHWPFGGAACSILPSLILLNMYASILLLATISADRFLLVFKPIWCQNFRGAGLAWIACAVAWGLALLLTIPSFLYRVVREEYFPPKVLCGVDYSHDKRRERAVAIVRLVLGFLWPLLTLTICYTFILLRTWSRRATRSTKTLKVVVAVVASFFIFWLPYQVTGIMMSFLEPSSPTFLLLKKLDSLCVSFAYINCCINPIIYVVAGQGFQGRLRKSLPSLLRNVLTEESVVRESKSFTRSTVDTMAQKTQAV
Test: hC5a DISCO IC50 assay (PathHunter beta-arrestin, antagonist mode)
Type: cell-based
Conditions: CHO-K1 C5AR1 beta-arrestin cell line; antagonist vs 1-10 nM C5a agonist; geometric mean values; read-out: C5aR IC50
Summary of the method: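 Antagonist added first, then 1-10 nM C5a agonist; cells incubated 1.5 h at 37 °C. Beta-arrestin signal developed with PathHunter detection reagent, 45 min at RT. IC50 in nmol/l from serial antagonist dilutions, reported as geometric mean of several measurements.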

pIC50 | SMILES
7.55 | COc1cccc2c1n(Cc1ccccc1C(F)(F)F)c(=O)n2C1CCN(c2c(C)ccnc2F)CC1 [Example 235, 1-(2′-Fluoro-4′-methyl-3,4,5,6-tetrahydro-2H-[1,3′]bipyridinyl-4-yl)-4-methoxy-3-(2-trifluoromethyl-benzyl)-1,3-dihydro-benzoimidazol-2-one]
6.77 | COc1cccc2c1n(Cc1ccccc1C(F)(F)F)c(=O)n2C1CCN(c2ncccc2F)CC1 [Example 236, 1-(3′-Fluoro-3,4,5,6-tetrahydro-2H-[1,2′]bipyridinyl-4-yl)-4-methoxy-3-(2-trifluoromethyl-benzyl)-1,3-dihydro-benzoimidazol-2-one]
7.05 | COc1cccc2c1n(Cc1ccccc1C(F)(F)F)c(=O)n2C1CCN(c2c(C)ccnc2C)CC1 [Example 237, 1-(2′,4′-Dimethyl-3,4,5,6-tetrahydro-2H-[1,3′]bipyridinyl-4-yl)-4-methoxy-3-(2-trifluoromethyl-benzyl)-1,3-dihydro-benzoimidazol-2-one]
6.88 | COc1cccc2c1n(Cc1ccccc1C(F)(F)F)c(=O)n2C1CCN(c2ccccc2OCCO)CC1 [Example 238, 1-{1-[2-(2-Hydroxy-ethoxy)-phenyl]-piperidin-4-yl}-4-methoxy-3-(2-trifluoromethyl-benzyl)-1,3-dihydro-benzoimidazol-2-one]
7.09 | COc1cccc2c1n(Cc1ccccc1C(F)(F)F)c(=O)n2C1CCN(c2ccccc2OC2CCOCC2)CC1 [Example 239, 4-Methoxy-1-{1-[2-(tetrahydro-pyran-4-yloxy)-phenyl]-piperidin-4-yl}-3-(2-trifluoromethyl-benzyl)-1,3-dihydro-benzoimidazol-2-one]
7.34 | COc1cccc2c1n(Cc1ccccc1C(F)(F)F)c(=O)n2C1CCN(c2ccccc2OCC2CC2)CC1 [Example 240, 1-[1-(2-Cyclopropylmethoxy-phenyl)-piperidin-4-yl]-4-methoxy-3-(2-trifluoromethyl-benzyl)-1,3-dihydro-benzoimidazol-2-one]
7.13 | COc1cccc2c1n(Cc1ccccc1C(F)(F)F)c(=O)n2C1CCN(c2ccccc2OC2COC2)CC1 [Example 242, 4-Methoxy-1-{1-[2-(oxetan-3-yloxy)-phenyl]-piperidin-4-yl}-3-(2-trifluoromethyl-benzyl)-1,3-dihydro-benzoimidazol-2-one]
6.64 | COc1cccc2c1n(Cc1ccccc1C(F)(F)F)c(=O)n2C1CCN(c2c(F)ccnc2C)CC1 [Example 244, 1-(4′-Fluoro-2′-methyl-3,4,5,6-tetrahydro-2H-[1,3′]bipyridinyl-4-yl)-4-methoxy-3-(2-trifluoromethyl-benzyl)-1,3-dihydro-benzoimidazol-2-one]
6.95 | Cc1cccc(F)c1N1CCC(n2c(=O)n(Cc3ccccc3C(F)(F)F)c3c(C)cccc32)CC1 [Example 245, 1-[1-(2-Fluoro-6-methyl-phenyl)-piperidin-4-yl]-4-methyl-3-(2-trifluoromethyl-benzyl)-1,3-dihydro-benzoimidazol-2-one]
7.41 | COc1cccc2c1n(Cc1ccccc1C(F)(F)F)c(=O)n2C1CCN(c2c(C)ccnc2C#N)CC1 [Example 246, 4-[4-Methoxy-2-oxo-3-(2-trifluoromethyl-benzyl)-2,3-dihydro-benzoimidazol-1-yl]-4′-methyl-3,4,5,6-tetrahydro-2H-[1,3′]bipyridinyl-2′-carbonitrile]
6.25 | COc1ccnc(C)c1N1CCC(n2c(=O)n(Cc3ccccc3C(F)(F)F)c3c(OC)cccc32)CC1 [Example 247, 4-Methoxy-1-(4′-methoxy-2′-methyl-3,4,5,6-tetrahydro-2H-[1,3′]bipyridinyl-4-yl)-3-(2-trifluoromethyl-benzyl)-1,3-dihydro-benzoimidazol-2-one]
6.74 | COc1ccnc(OC)c1N1CCC(n2c(=O)n(Cc3ccccc3C(F)(F)F)c3c(OC)cccc32)CC1 [Example 248, 1-(2′,4′-Dimethoxy-3,4,5,6-tetrahydro-2H-[1,3′]bipyridinyl-4-yl)-4-methoxy-3-(2-trifluoromethyl-benzyl)-1,3-dihydro-benzoimidazol-2-one]
6.56 | COc1ncnc(C)c1N1CCC(n2c(=O)n(Cc3ccccc3C(F)(F)F)c3c(OC)cccc32)CC1 [Example 249, 4-Methoxy-1-[1-(4-methoxy-6-methyl-pyrimidin-5-yl)-piperidin-4-yl]-3-(2-trifluoromethyl-benzyl)-1,3-dihydro-benzoimidazol-2-one]
6.07 | COc1ncnc(OC)c1N1CCC(n2c(=O)n(Cc3ccccc3C(F)(F)F)c3c(OC)cccc32)CC1 [Example 250, 1-[1-(4,6-Dimethoxy-pyrimidin-5-yl)-piperidin-4-yl]-4-methoxy-3-(2-trifluoromethyl-benzyl)-1,3-dihydro-benzoimidazol-2-one]

SMILES | pIC50
COc1cccc2c1n(Cc1ccccc1C(F)(F)F)c(=O)n2C1CCN(c2ccccc2OC2CCC2)CC1 [Example 241, 1-[1-(2-Cyclobutoxy-phenyl)-piperidin-4-yl]-4-methoxy-3-(2-trifluoromethyl-benzyl)-1,3-dihydro-benzoimidazol-2-one] | 7.44
CCCCOc1ccccc1N1CCC(n2c(=O)n(Cc3ccccc3C(F)(F)F)c3c(OC)cccc32)CC1 [Example 243, 1-[1-(2-Butoxy-phenyl)-piperidin-4-yl]-4-methoxy-3-(2-trifluoromethyl-benzyl)-1,3-dihydro-benzoimidazol-2-one] | 7.21
